Our source for the EC50 and CC50 values is patent US5696151A, “Compounds useful for the inhibition of the replication of HIV-1 and HIV-1 mutants” (priority 1995, dated 1997).

As usually defined, the EC50 is the concentration at which the effect is half-maximal. By CC50 is commonly meant the concentration at which the toxic effect on the cells reaches its halfway point. Higher therefore signals better tolerance by the cells.

Holding throughout (type): cell-based
One data set has as its system HIV-1(IIIB). Nature of the data set: Inhibition of HIV-1 induced syncytium formation in CEM cells, wild type. The note with it: Human immunodeficiency virus 1, IIIB, CCRF-CEM, 96 h, Table 2B, WT = HIV-1(IIIB), day 4, averages of 2 to 3 independent experiments, read-out: Antiviral Activity of Comparative Compounds EC50, WT. The source says:
(§1) CEM cells were obtained from the American Tissue Cell Culture Collection (Rockville, Md.). HIV-1(IIIB) was originally obtained from the culture supernatant of persistently HIV-1-infected H9 cells and was provided by R. C. Gallo and M. Popovic (National Cancer Institute, National Institutes of Health, Bethesda, Md.). […] 67: 5353-5359 (1993); HIV-1/Lys-138 ("Lys-138") was selected for resistance against TSAO-m^3T as described in Balzarini et al, Virology 192: 246-253 (1993) and Balzarini et al, Proc. Nat. Acad. Sci. USA 90: 6952-6956 (1993); HIV-1/181-Cys ("181-Cys") was selected for resistance against pyridinone L-697,661 as described in Balzarini et al, Virology 192: 246-253 (1993); and HIV-1/188-His ("188-His") was selected for resistance against HEPT as described in Balzarini et al, Mol. Pharmocol. 44: 694-701 (1993). 188-His was then further converted to HIV-1/188-Leu "188-Leu") upon further passage in cell culture in the absence of the HEPT.
(§2) CEM cells were suspended at ≈300,000 cells per ml of culture medium and infected with approximately 100 CCID50 (CCID50 being the 50% cell culture infective dose) of HIV-1(IIIB) or one of the HIV-1 RT mutant strains described above. Then 100 μl of the infected cell suspensions was added to 200 μl microtiter plate wells containing 100 μl of appropriate serial (5-fold) dilutions of the test compounds. The inhibitory effect of the test compounds on HIV-1 induced syncytium formation in CEM cells was examined microscopically on day 4 post infection.

The subject of a further data set is HIV-1/100-Ile. The data set is described as follows: Inhibition of HIV-1 induced syncytium formation in CEM cells, RT mutant 100-Ile. The conditions noted are these: Human immunodeficiency virus 1, CCRF-CEM, 96 h, Table 2B, day 4, averages of 2 to 3 independent experiments, read-out: Antiviral Activity of Comparative Compounds EC50, 100-Ile.
Excerpt: as §1, §2

For the next data set, the system named is HIV-1/106-Ala. The data set is described as follows: Inhibition of HIV-1 induced syncytium formation in CEM cells, RT mutant 106-Ala. The note with it: Human immunodeficiency virus 1, CCRF-CEM, 96 h, Table 2B, day 4, averages of 2 to 3 independent experiments, read-out: Antiviral Activity of Comparative Compounds EC50, 106-Ala.
Excerpt: as §1, §2

Another data set relates to HIV-1/Lys-138. Nature of the data set: Inhibition of HIV-1 induced syncytium formation in CEM cells, RT mutant 138-Lys. The conditions noted are these: Human immunodeficiency virus 1, CCRF-CEM, 96 h, Table 2B, day 4, averages of 2 to 3 independent experiments, read-out: Antiviral Activity of Comparative Compounds EC50, 138-Lys.
Excerpt: as §1, §2

Another data set relates to HIV-1/181-Cys. The data set is described as follows: Inhibition of HIV-1 induced syncytium formation in CEM cells, RT mutant 181-Cys. The note with it: Human immunodeficiency virus 1, CCRF-CEM, 96 h, Table 2B, day 4, averages of 2 to 3 independent experiments, read-out: Antiviral Activity of Comparative Compounds EC50, 181-Cys.
Excerpt: as §1, §2

A short description of a further data set: in vitro. The conditions noted are these: human, cem cells, CC50 (50% cytostatic concentration), Table 2B; CEM cell proliferation; averages of 2 to 3 independent experiments.
Excerpt: as §1
^b 50% cytostatic concentration (i.e., compound concentration require
to inhibit CEM cell proliferation by 50%)

Values after ≈ are worked out from the molar mass of the structure shown.

With `C=CCOC(=O)c1cc(NC(=S)c2ccoc2C)ccc1Cl` [Compound 104], the EC50 in the data set on HIV-1(IIIB) came to 0.01 µg/mL (≈ 0.0298 µM); with HIV-1/100-Ile, 0.65 µg/mL (≈ 1.94 µM); with HIV-1/106-Ala, 0.4 µg/mL (≈ 1.19 µM); in the data set on HIV-1/Lys-138 it was 0.2 µg/mL (≈ 0.596 µM); in the data set on HIV-1/181-Cys, 0.37 µg/mL (≈ 1.1 µM). The molecule further came in with a CC50 in the data set “in vitro” of 11 µg/mL (≈ 32.8 µM).
As for `C=C(C)COC(=O)c1cc(NC(=O)c2ccoc2C)ccc1Cl` [Compound 50], the EC50 is 0.15 µg/mL (≈ 0.449 µM) in the data set with HIV-1(IIIB); 5 µg/mL (≈ 15 µM) in the data set on HIV-1/100-Ile; 1 µg/mL (≈ 3 µM) in the data set on HIV-1/106-Ala; 1 µg/mL (≈ 3 µM) in the data set with HIV-1/Lys-138; 1.9 µg/mL (≈ 5.69 µM) with HIV-1/181-Cys. For the same molecule, the midpoint of cytotoxicity in “in vitro”, the CC50, lay at 3.7 µg/mL (≈ 11.1 µM).
Take `Cc1ccsc1C(=S)Nc1ccc(Cl)c(C(=O)OC(C)C)c1` [Compound 88]: the EC50 in the data set with HIV-1(IIIB) was determined as 0.01 µg/mL (≈ 0.0283 µM); with HIV-1/100-Ile, 0.7 µg/mL (≈ 1.98 µM); in the data set with HIV-1/106-Ala, 0.6 µg/mL (≈ 1.7 µM); in the data set with HIV-1/Lys-138 it was 0.3 µg/mL (≈ 0.848 µM); in the data set with HIV-1/181-Cys, 0.27 µg/mL (≈ 0.763 µM). Further, in the data set “in vitro”, the CC50 was 5.2 µg/mL (≈ 14.7 µM).
Regarding `Cc1occc1C(=S)Nc1ccc(Cl)c(C(=O)OC2CCCC2)c1` [Compound 109], the EC50 came to 0.005 µg/mL (≈ 0.0137 µM) in the data set on HIV-1(IIIB); 0.17 µg/mL (≈ 0.467 µM) in the data set on HIV-1/100-Ile; 0.04 µg/mL (≈ 0.11 µM) with HIV-1/106-Ala; 0.035 µg/mL (≈ 0.0962 µM) with HIV-1/Lys-138; 0.045 µg/mL (≈ 0.124 µM) in the data set on HIV-1/181-Cys. The molecule also had a CC50 in “in vitro” of 4.3 µg/mL (≈ 11.8 µM).
Turning to `Cc1occc1C(=O)Nc1ccc(Cl)c(C(=O)OC(C)C2CC2)c1` (stereo not drawn) [Compound 54], the EC50 was 0.6 µg/mL (≈ 1.73 µM) in the data set with HIV-1(IIIB); greater than 10 µg/mL in the data set on HIV-1/100-Ile; 5 µg/mL (≈ 14.4 µM) with HIV-1/106-Ala; greater than 10 µg/mL with HIV-1/Lys-138; 1 µg/mL (≈ 2.88 µM) with HIV-1/181-Cys. The CC50 in “in vitro” was 44 µg/mL (≈ 127 µM).
For `Cc1occc1C(=O)Nc1ccc(Cl)c(COC(C)(C)C)c1` [Compound 52], the EC50 was 0.7 µg/mL (≈ 2.18 µM) in the data set with HIV-1(IIIB); 8.5 µg/mL (≈ 26.4 µM) in the data set on HIV-1/100-Ile; 5.5 µg/mL (≈ 17.1 µM) with HIV-1/106-Ala; 4 µg/mL (≈ 12.4 µM) with HIV-1/Lys-138; no less than 10 µg/mL in the data set on HIV-1/181-Cys. This molecule also showed a CC50 in the data set “in vitro” of 6.2 µg/mL (≈ 19.3 µM).
For the molecule `O=C(OC1CCCCC1)c1cc(NC(=S)c2ccccc2Cl)ccc1Cl` [Compound 80], the EC50 in the data set with HIV-1(IIIB) was 0.5 µg/mL (≈ 1.22 µM); with HIV-1/100-Ile it was 4 µg/mL (≈ 9.8 µM); in the data set on HIV-1/106-Ala, 5 µg/mL (≈ 12.2 µM); with HIV-1/Lys-138, 4 µg/mL (≈ 9.8 µM); in the data set on HIV-1/181-Cys it was 3 µg/mL (≈ 7.35 µM). The same molecule displayed a CC50 in “in vitro” of 8.3 µg/mL (≈ 20.3 µM).
Regarding `CCC(CC)OC(=O)c1cc(NC(=O)c2ccccc2N)ccc1Cl` [Compound 66], the EC50 in the data set on HIV-1(IIIB) was 0.6 µg/mL (≈ 1.66 µM); in the data set on HIV-1/100-Ile, greater than 10 µg/mL; in the data set on HIV-1/106-Ala, 9 µg/mL (≈ 24.9 µM); with HIV-1/Lys-138, greater than 10 µg/mL; in the data set with HIV-1/181-Cys, no less than 10 µg/mL. Further, in “in vitro”, it took 25 µg/mL (≈ 69.3 µM) to reach half-maximal cytotoxicity (CC50).
`CCC(CC)OC(=O)c1cc(NC(=S)c2ccoc2C)ccc1Cl` [Compound 107]: the EC50 in the data set with HIV-1(IIIB) was 0.04 µg/mL (≈ 0.109 µM); with HIV-1/100-Ile, 0.6 µg/mL (≈ 1.64 µM); in the data set with HIV-1/106-Ala it was 0.3 µg/mL (≈ 0.82 µM); with HIV-1/Lys-138, 0.15 µg/mL (≈ 0.41 µM); with HIV-1/181-Cys, 0.3 µg/mL (≈ 0.82 µM). Moreover, the CC50 in “in vitro” was found to be 16 µg/mL (≈ 43.7 µM).
Regarding `Cc1occc1C(=S)Nc1ccc(Cl)c(C(=O)OCC(F)(F)F)c1` [Compound 106], the EC50 with HIV-1(IIIB) is 0.007 µg/mL (≈ 0.0185 µM); in the data set with HIV-1/100-Ile, 0.5 µg/mL (≈ 1.32 µM); in the data set with HIV-1/106-Ala it was 0.08 µg/mL (≈ 0.212 µM); with HIV-1/Lys-138, 0.065 µg/mL (≈ 0.172 µM); with HIV-1/181-Cys, 0.085 µg/mL (≈ 0.225 µM). This molecule registered a 50% cytotoxic concentration (CC50) in the data set “in vitro” greater than 100 µg/mL.
As to `Cc1ccccc1C(=O)Nc1ccc(Cl)c(C(=O)OC2CCCCC2)c1` [Compound 70], the EC50 in the data set on HIV-1(IIIB) stood at 0.19 µg/mL (≈ 0.511 µM); in the data set with HIV-1/100-Ile it was 2.5 µg/mL (≈ 6.72 µM); in the data set on HIV-1/106-Ala it was 6.5 µg/mL (≈ 17.5 µM); in the data set with HIV-1/Lys-138, 5.5 µg/mL (≈ 14.8 µM); with HIV-1/181-Cys, 2.5 µg/mL (≈ 6.72 µM). In “in vitro”, this molecule yielded a CC50 of 5.2 µg/mL (≈ 14 µM).
Turning to `Cc1ccoc1C(=S)Nc1ccc(Cl)c(C=NOC(C)C)c1` [Compound 94], the EC50 in the data set with HIV-1(IIIB) came to 0.01 µg/mL (≈ 0.0297 µM); with HIV-1/100-Ile it was 0.75 µg/mL (≈ 2.23 µM); in the data set with HIV-1/106-Ala, 0.5 µg/mL (≈ 1.48 µM); with HIV-1/Lys-138, 0.15 µg/mL (≈ 0.445 µM); in the data set on HIV-1/181-Cys, 0.6 µg/mL (≈ 1.78 µM). For the same molecule, in “in vitro”, the CC50 amounted to 3.1 µg/mL (≈ 9.2 µM).
As to `C#CCOc1cc(NC(=S)c2ccoc2C)ccc1Cl` [Compound 117], the EC50 was 0.06 µg/mL (≈ 0.196 µM) in the data set on HIV-1(IIIB); 5 µg/mL (≈ 16.4 µM) in the data set with HIV-1/100-Ile; 0.75 µg/mL (≈ 2.45 µM) in the data set with HIV-1/106-Ala; 0.35 µg/mL (≈ 1.14 µM) in the data set on HIV-1/Lys-138; 4 µg/mL (≈ 13.1 µM) in the data set with HIV-1/181-Cys. The molecule also came in with a 50% cytotoxic concentration (CC50) in the data set “in vitro” of 18 µg/mL (≈ 58.9 µM).
